Laboratory results from patent publication US20260258048A1, “LACTAM-CONTAINING IMIDAZOPYRIDAZINE IL-17 INHIBITOR COMPOUNDS” (Janssen Pharmaceutica NV, priority 2023, published 2026).

tested on: IL-17A-induced G-CSF production in human normal keratinocyte (NHK); experiment: NHK assay: IL-17A-induced G-CSF production in normal human keratinocytes; format: cell-based; details: Homo sapiens, Keratinocyte, 24 h, IL-17A 5 ng/mL, class of the average IC50 where tested more than once
Protocol: IL-17A acts directly on keratinocytes through binding to dimeric receptor IL-17RA/RC and drives the production of a number of inflammatory mediators known to be elevated in psoriasis lesional tissue. IL-17A small molecule inhibitors that block the IL-17A to interact with IL-17R would inhibit the IL-17A signaling in its targeted cells such as keratinocytes. The compound functional activity is evaluated for its impact on IL-17A-induced G-CSF production in human normal keratinocyte (NHK).
Adult normal human keratinocytes are cultured in keratinocyte growth medium (Lonza) in a flask till reaching ~90% confluence, then cells are transferred to a 384-well plate at density of 3000-4000 cell/well. Recombinant human IL-17A (Gibco PHC9174) is pre-incubated with titrated compound or DMSO for 1 h at rt then added to the cell culture plate. The final concentration of IL-17A is 5 ng/mL and DMSO is 0.2%, in the culture containing 5% FBS. Cells are cultured/treated for 24 h at 37° C. Supernatants are collected and G-CSF production is measured through HTRF technology using Human G-CSF Kit (CisBio). G-CSF concentration was extrapolated from the standard curve and IC50 is determined using GraphPad Prism. Cell viability is also evaluated using CellTiter-Glo kit (Promega) and effect of compound on cell viability is compared to DMSO control.

| SMILES | IC50 [µM] |
| --- | --- |
| O=C(N[C@H](c1cn2ncc(C[C@@H]3CC[C@@H](C(F)(F)F)NC3=O)cc2n1)C1CCC(F)(F)CC1)c1nonc1C1CC1 (relative stereo) [Example 32, 4-Cyclopropyl-N—((S)-(4,4-difluorocyclohexyl)(7-(((3S*,6S*)-2-oxo-6-(trifluoromethyl)piperidin-3-yl)methyl)imidazo[1,2-b]pyridazin-2-yl)methyl)-1,2,5-oxadiazole-3-carboxamide] | > 4 |
| Cc1nonc1C(=O)N[C@@H](CCC(C)(C)C(F)(F)F)c1cn2ncc(C[C@H]3C[C@@H](C(F)(F)F)NC3=O)cc2n1 (single isomer, unassigned) [Example 37] | < 0.4 |
| O=C(N[C@H](c1cn2ncc(C[C@@H]3CC[C@H](C(F)(F)F)NC3=O)cc2n1)C1CCC(F)(F)CC1)c1nonc1C1CC1 (relative stereo) [Example 31, 4-Cyclopropyl-N—((S)-(4,4-difluorocyclohexyl)(7-(((3S*,6R*)-2-oxo-6-(trifluoromethyl)piperidin-3-yl)methyl)imidazo[1,2-b]pyridazin-2-yl)methyl)-1,2,5-oxadiazole-3-carboxamide] | < 0.4 |
| C[C@@]1(C(F)(F)F)CC(Cc2cnn3cc([C@@H](NC(=O)c4nonc4C4CC4)C4CCC(F)(F)CC4)nc3c2)C(=O)N1 (single isomer, unassigned) [Example 55, 4-Cyclopropyl-N—((S)-(4,4-difluorocyclohexyl(7-(((3S*,5S)-5-methyl-2-oxo-5-(trifluoromethyl)pyrrolidine-3-yl)methyl)imidazo[1,2-b]pyrrolidin-2-yl)methyl)-1,2,5-oxadiazole-3-carboxamide] | < 0.4 |
| C[C@H]1CNC(=O)[C@@H]1Cc1cnn2cc([C@@H](NC(=O)c3nonc3C3CC3)C3CCC(F)(F)CC3)nc2c1 (relative stereo) [Example 87, 4-Cyclopropyl-N—[(S)-(4,4-difluorocyclohexyl)-[7-[[(3R*,4R*)-4-methyl-2-oxo-pyrrolidin-3-yl]methyl]imidazo[1,2-b]pyridazin-2-yl]methyl]-1,2,5-oxadiazole-3-carboxamide] | > 4 |
| O=C(N[C@H](c1cn2ncc(C[C@@H]3C(=O)NCC[C@H]3C(F)(F)F)cc2n1)C1CCC(F)(F)CC1)c1nonc1C1CC1 (relative stereo) [Example 3, 4-Cyclopropyl-N—[(S)-(4,4-difluorocyclohexyl)-[7-[[(3S*,4R*)-2-oxo-4-(trifluoromethyl)-3-piperidyl]methyl]imidazo[1,2-b]pyridazin-2-yl]methyl]-1,2,5-oxadiazole-3-carboxamide] | > 4 |
| O=C(N[C@H](c1cn2ncc(C[C@H]3C[C@H](C(F)(F)F)CNC3=O)cc2n1)C1CCC(F)(F)CC1)c1nonc1C1CC1 (relative stereo) [Example 34, 4-Cyclopropyl-N—((S)-(4,4-difluorocyclohexyl)(7-(((3R*,5S*)-2-oxo-5-(trifluoromethyl)piperidin-3-yl)methyl)imidazo[1,2-b]pyridazin-2-yl)methyl)-1,2,5-oxadiazole-3-carboxamide] | > 4 |
| O=C(N[C@H](c1cn2ncc(C[C@H]3C[C@@H](C(F)(F)F)CNC3=O)cc2n1)C1CCC(F)(F)CC1)c1nonc1C1CC1 (relative stereo) [Example 33, 4-Cyclopropyl-N—((S)-(4,4-difluorocyclohexyl)(7-(((3R*,5R*)-2-oxo-5-(trifluoromethyl)piperidin-3-yl)methyl)imidazo[1,2-b]pyridazin-2-yl)methyl)-1,2,5-oxadiazole-3-carboxamide] | 0.4 to 4 |
| CC(C)(CC[C@H](NC(=O)c1nonc1C1CC1)c1cn2ncc(CC3C[C@@](C)(C(F)(F)F)NC3=O)cc2n1)C(F)(F)F (single isomer, unassigned) [Example 57, 4-Cyclopropyl-N—((S)-5,5,5-trifluoro-4,4-dimethyl-1-(7-(((3S*,5S)-5-methyl-2-oxo-5-(trifluoromethyl)pyrrolidin-3-yl)methyl)imidazo[1,2-b]pyridazin-2-yl)pentyl)-1,2,5-oxadiazole-3-carboxamide] | < 0.4 |
| O=C(N[C@H](c1cn2ncc(CC3CC(C(F)(F)F)CNC3=O)cc2n1)C1CCC(F)(F)CC1)c1nonc1C1CC1 (single isomer, unassigned) [Example 35, 4-Cyclopropyl-N-((1S)-(4,4-difluorocyclohexyl)(7-(((3S*)-2-oxo-5-(trifluoromethyl)piperidin-3-yl)methyl)imidazo[1,2-b]pyridazin-2-yl)methyl)-1,2,5-oxadiazole-3-carboxamide] | 0.4 to 4 |
| C[C@@H]1C[C@@H](Cc2cnn3cc([C@@H](NC(=O)c4nonc4C4CC4)C4CCC(F)(F)CC4)nc3c2)C(=O)N1 (relative stereo) [Example 84, Cyclopropyl-N—((S)-(4,4-difluorocyclohexyl)(7-(((3R*,5R*)-5-methyl-2-oxopyrrolidin-3-yl)methyl)imidazo[1,2-b]pyridazin-2-yl)methyl)-1,2,5-oxadiazole-3-carboxamide] | > 4 |
| COC[C@]1(Cc2cnn3cc([C@@H](NC(=O)c4nonc4C4CC4)C4CCC(F)(F)CC4)nc3c2)C[C@@H](C(F)(F)F)NC1=O (single isomer, unassigned) [Example 99] | < 0.4 |
| Cc1nonc1C(=O)N[C@H](c1cn2ncc([C@@](C)(O)[C@@]3(C)C[C@@H](C(F)(F)F)NC3=O)cc2n1)C1CCC(F)(F)CC1 [Example 106, N—((S)-(4,4-Difluorocyclohexyl)(7-((R)-1-hydroxy-1-((3R,5S)-3-methyl-2-oxo-5-(trifluoromethyl)pyrrolidin-3-yl)ethyl)imidazo[1,2-b]pyridazin-2-yl)methyl)-4-methyl-1,2,5-oxadiazole-3-carboxamide] | < 0.4 |
| CC(C)(CC[C@H](NC(=O)c1nonc1C1CC1)c1cn2ncc([C@@H](O)[C@H]3C[C@@H](C(F)(F)F)NC3=O)cc2n1)C(F)(F)F (relative stereo) [Example 66, 4-Cyclopropyl-N—((S)-5,5,5-trifluoro-1-(7-((S*)-hydroxy((3R*,5S)-2-oxo-5-(trifluoromethyl)pyrrolidin-3-yl)methyl)imidazo[1,2-b]pyridazin-2-yl)-4,4-dimethylpentyl)-1,2,5-oxadiazole-3-carboxamide] | 0.4 to 4 |
| O=C(N[C@H](c1cn2ncc(C[C@H]3CC[C@@H](C(F)(F)F)NC3=O)cc2n1)C1CCC(F)(F)CC1)c1nonc1C1CC1 (relative stereo) [Example 30, 4-Cyclopropyl-N—((S)-(4,4-difluorocyclohexyl)(7-(((3R*,6S*)-2-oxo-6-(trifluoromethyl)piperidin-3-yl)methyl)imidazo[1,2-b]pyridazin-2-yl)methyl)-1,2,5-oxadiazole-3-carboxamide] | > 4 |
| CC(C)(CC[C@H](NC(=O)c1nonc1C1CC1)c1cn2ncc([C@@H](O)[C@@H]3C[C@@H](C(F)(F)F)NC3=O)cc2n1)C(F)(F)F (relative stereo) [Example 67, 4-Cyclopropyl-N—((S)-5,5,5-trifluoro-1-(7-((S*)-hydroxy((3S*,5S)-2-oxo-5-(trifluoromethyl)pyrrolidin-3-yl)methyl)imidazo[1,2-b]pyridazin-2-yl)-4,4-dimethylpentyl)-1,2,5-oxadiazole-3-carboxamide] | > 4 |
